Source: US9241928B2, “Antimicrobial compounds” (The General Hospital Corporation, priority 2009, dated 2016)

Legend:
Assay type in all cases: in vivo, Caenorhabditis elegans
[1] = test system: F35E12.5::GFP; assay: Immune GFP reporter induction, transgene acIs101; conditions: compound-exposed versus DMSO-exposed animals, visual
Excerpt: (§1) Caenorhabditis elegans strains were maintained on Escherichia coli OP50 as described in Brenner, Genetics, 1974, 77:71-94. Wildtype N2 nematodes carrying integrated transgenes acIs219 (AU78), acIs101(AY101), agIs17(AU133), or agIs26 (AU185) (see (1) Shivers, et al., PLoS. Genet. 2010, 6: e1000892, (2) Bolz et al., J. Biol. Chem. 2010, 285:10832-40, (3) Estes et al., Proc. Natl. Acad. Sci., 2010, 107:2153-8, and (4) Irazoqui et al., Proc. Natl. Acad. Sci., 2008, 105:17469-74) were used to assay the immunomodulatory activity of candidate compounds. […] Fold change was calculated using the Pfaffl method (see Pfaffl et al., Nucleic Acids Res., 2001, 29:e45).
Without wishing to be bound by theory, it was hypothesized that a subset of these compounds cured nematode infection by directly activating the innate immune response of the animal. […] First, the inventors studied four C. elegans strains in which the promoter of the nematode immune response genes T24B8.5, F35E12.5, irg-1 and clec-60 were individually fused to GFP, generating transgenes acIs219 (AU78), acIs101(AY101), agIs17(AU133), or agIs26 (AU185), respectively, thereby allowing a visual readout of gene activity in each strain. […]

[2] = test system: T24B8.5::GFP; assay: Immune GFP reporter induction, transgene acIs219; conditions: compound-exposed versus DMSO-exposed animals, visual
Excerpt: as §1, with “compounds. For qRT-PCR experiments, RNA was extracted from synchronized young adult nematodes exposed to a candidate compound or DMSO (as a control) using TRI Reagent and reverse transcribed using the Retroscript kit (Ambion). This cDNA was then subjected to qRT-PCR analysis using SYBR green detection on a CFX1000 machine (Bio-Rad, http://www.bio-rad.com). Primers for qRT-PCR were obtained from published sequences (see Irazoqui et al., Proc. Natl. Acad. Sci., 2008, 105:17469-74 and Troemel et al., PLoS Genet. 2006, 2:e183).” for “compounds.”
Without wishing to be bound by theory, it was hypothesized that a subset of these compounds cured nematode infection by directly activating the innate immune response of the animal. To test this hypothesis, a multi-faceted approach was used. First, the inventors studied four C. elegans strains in which the promoter of the nematode immune response genes T24B8.5, F35E12.5, irg-1 and clec-60 were individually fused to GFP, generating transgenes acIs219 (AU78), acIs101(AY101), agIs17(AU133), or agIs26 (AU185), respectively, thereby allowing a visual readout of gene activity in each strain. Using these reporter strains, the ability of 33 compounds previously shown to have anti-Enterococcal killing activity in the C. elegans infection assay (24 of which have been described above) were tested for their ability to modulate the nematode immune response.

[3] = test system: C17H12.8; assay: qRT-PCR of immune response gene expression; conditions: 20 μg/mL versus DMSO
Excerpt: as §1, with “compounds. For qRT-PCR experiments, RNA was extracted from synchronized young adult nematodes exposed to a candidate compound or DMSO (as a control) using TRI Reagent and reverse transcribed using the Retroscript kit (Ambion). This cDNA was then subjected to qRT-PCR analysis using SYBR green detection on a CFX1000 machine (Bio-Rad, http://www.bio-rad.com). Primers for qRT-PCR were obtained from published sequences (see Irazoqui et al., Proc. Natl. Acad. Sci., 2008, 105:17469-74 and Troemel et al., PLoS Genet. 2006, 2:e183).” for “compounds.”
(§2) By using the assay described above, the inventors identified five compounds (i.e., Compounds 11, 18, 20, 25, and 26) that robustly and reproducibly activated the immune GFP reporters (see FIG. 5 and Table 3) or activated selected immune response genes as determined by quantitative RT-PCR analysis (see Table 4). For the latter experiments, RNA was isolated from wild-type C. elegans N2 or pmk-1 mutant animals exposed to the candidate immunomodulatory compounds at 20 μg/mL and from animals exposed to DMSO. The inventors tested several immune response genes in compound-exposed animals that are known to be regulated by PMK-1, the p38 Mitogen Acitvated Protein kinase homolog, an evolutionary-conserved, central regulator of nematode immunity. The inventors also used qRT-PCR to measure the activation of several immune response genes that are known to be activated independently of PMK-1. […] Thus, without wishing to be bound by theory, it is believed that a subset of the compounds identified in the screen for novel anti-infective compounds directly stimulate the immune response of the nematode and that these compounds act both by directly stimulating the PMK-1 pathway and by unidentified parallel immune response pathways.

[4] = test system: C49G7.5; assay: qRT-PCR of immune response gene expression; conditions: 20 μg/mL versus DMSO
Excerpt: as §1, with “compounds. For qRT-PCR experiments, RNA was extracted from synchronized young adult nematodes exposed to a candidate compound or DMSO (as a control) using TRI Reagent and reverse transcribed using the Retroscript kit (Ambion). This cDNA was then subjected to qRT-PCR analysis using SYBR green detection on a CFX1000 machine (Bio-Rad, http://www.bio-rad.com). Primers for qRT-PCR were obtained from published sequences (see Irazoqui et al., Proc. Natl. Acad. Sci., 2008, 105:17469-74 and Troemel et al., PLoS Genet. 2006, 2:e183).” for “compounds.”
as §2

[5] = test system: F35E12.5; assay: qRT-PCR of immune response gene expression; conditions: 20 μg/mL versus DMSO
Excerpt: as §1, with “compounds. For qRT-PCR experiments, RNA was extracted from synchronized young adult nematodes exposed to a candidate compound or DMSO (as a control) using TRI Reagent and reverse transcribed using the Retroscript kit (Ambion). This cDNA was then subjected to qRT-PCR analysis using SYBR green detection on a CFX1000 machine (Bio-Rad, http://www.bio-rad.com). Primers for qRT-PCR were obtained from published sequences (see Irazoqui et al., Proc. Natl. Acad. Sci., 2008, 105:17469-74 and Troemel et al., PLoS Genet. 2006, 2:e183).” for “compounds.”
as §2

[6] = test system: F53E10.4; assay: qRT-PCR of immune response gene expression; conditions: 20 μg/mL versus DMSO
Excerpt: as §1, with “compounds. For qRT-PCR experiments, RNA was extracted from synchronized young adult nematodes exposed to a candidate compound or DMSO (as a control) using TRI Reagent and reverse transcribed using the Retroscript kit (Ambion). This cDNA was then subjected to qRT-PCR analysis using SYBR green detection on a CFX1000 machine (Bio-Rad, http://www.bio-rad.com). Primers for qRT-PCR were obtained from published sequences (see Irazoqui et al., Proc. Natl. Acad. Sci., 2008, 105:17469-74 and Troemel et al., PLoS Genet. 2006, 2:e183).” for “compounds.”
as §2

[7] = test system: F56D6.2; assay: qRT-PCR of immune response gene expression; conditions: 20 μg/mL versus DMSO
Excerpt: as §1, with “compounds. For qRT-PCR experiments, RNA was extracted from synchronized young adult nematodes exposed to a candidate compound or DMSO (as a control) using TRI Reagent and reverse transcribed using the Retroscript kit (Ambion). This cDNA was then subjected to qRT-PCR analysis using SYBR green detection on a CFX1000 machine (Bio-Rad, http://www.bio-rad.com). Primers for qRT-PCR were obtained from published sequences (see Irazoqui et al., Proc. Natl. Acad. Sci., 2008, 105:17469-74 and Troemel et al., PLoS Genet. 2006, 2:e183).” for “compounds.”
as §2

[8] = test system: T24B8.5; assay: qRT-PCR of immune response gene expression; conditions: 20 μg/mL versus DMSO
Excerpt: as §1, with “compounds. For qRT-PCR experiments, RNA was extracted from synchronized young adult nematodes exposed to a candidate compound or DMSO (as a control) using TRI Reagent and reverse transcribed using the Retroscript kit (Ambion). This cDNA was then subjected to qRT-PCR analysis using SYBR green detection on a CFX1000 machine (Bio-Rad, http://www.bio-rad.com). Primers for qRT-PCR were obtained from published sequences (see Irazoqui et al., Proc. Natl. Acad. Sci., 2008, 105:17469-74 and Troemel et al., PLoS Genet. 2006, 2:e183).” for “compounds.”
as §2

[9] = test system: irg-1; assay: qRT-PCR of immune response gene expression; conditions: 20 μg/mL versus DMSO
Excerpt: as §1, with “compounds. For qRT-PCR experiments, RNA was extracted from synchronized young adult nematodes exposed to a candidate compound or DMSO (as a control) using TRI Reagent and reverse transcribed using the Retroscript kit (Ambion). This cDNA was then subjected to qRT-PCR analysis using SYBR green detection on a CFX1000 machine (Bio-Rad, http://www.bio-rad.com). Primers for qRT-PCR were obtained from published sequences (see Irazoqui et al., Proc. Natl. Acad. Sci., 2008, 105:17469-74 and Troemel et al., PLoS Genet. 2006, 2:e183).” for “compounds.”
as §2

[10] = test system: immune response genes; assay: qRT-PCR of immune response genes, PMK-1 dependence (overall); conditions: 20 μg/mL, N2 or pmk-1 mutant animals
Excerpt: as §1, with “compounds. For qRT-PCR experiments, RNA was extracted from synchronized young adult nematodes exposed to a candidate compound or DMSO (as a control) using TRI Reagent and reverse transcribed using the Retroscript kit (Ambion). This cDNA was then subjected to qRT-PCR analysis using SYBR green detection on a CFX1000 machine (Bio-Rad, http://www.bio-rad.com). Primers for qRT-PCR were obtained from published sequences (see Irazoqui et al., Proc. Natl. Acad. Sci., 2008, 105:17469-74 and Troemel et al., PLoS Genet. 2006, 2:e183).” for “compounds.”
By using the assay described above, the inventors identified five compounds (i.e., Compounds 11, 18, 20, 25, and 26) that robustly and reproducibly activated the immune GFP reporters (see FIG. 5 and Table 3) or activated selected immune response genes as determined by quantitative RT-PCR analysis (see Table 4). For the latter experiments, RNA was isolated from wild-type C. elegans N2 or pmk-1 mutant animals exposed to the candidate immunomodulatory compounds at 20 μg/mL and from animals exposed to DMSO. The inventors tested several immune response genes in compound-exposed animals that are known to be regulated by PMK-1, the p38 Mitogen Acitvated Protein kinase homolog, an evolutionary-conserved, central regulator of nematode immunity. The inventors also used qRT-PCR to measure the activation of several immune response genes that are known to be activated independently of PMK-1. […]

Structure (SMILES)	immune reporter induction F35E12.5::GFP [1]	immune reporter induction T24B8.5::GFP [2]	C17H12.8 expression, average fold-change ([3]; genotype N2) [fold-change]	C17H12.8 expression, average fold-change ([3]; genotype pmk-1(km25)) [fold-change]	C49G7.5 expression, average fold-change ([4]; genotype N2) [fold-change]	C49G7.5 expression, average fold-change ([4]; genotype pmk-1(km25)) [fold-change]	F35E12.5 expression, average fold-change ([5]; genotype N2) [fold-change]	F35E12.5 expression, average fold-change ([5]; genotype pmk-1(km25)) [fold-change]	F53E10.4 expression, average fold-change ([6]; genotype N2) [fold-change]	F53E10.4 expression, average fold-change ([6]; genotype pmk-1(km25)) [fold-change]	F56D6.2 expression, average fold-change ([7]; genotype N2) [fold-change]	F56D6.2 expression, average fold-change ([7]; genotype pmk-1(km25)) [fold-change]	T24B8.5 expression, average fold-change ([8]; genotype N2) [fold-change]	T24B8.5 expression, average fold-change ([8]; genotype pmk-1(km25)) [fold-change]	irg-1 expression, average fold-change ([9]; genotype N2) [fold-change]	irg-1 expression, average fold-change ([9]; genotype pmk-1(km25)) [fold-change]	PMK-1 dependence of immune response gene activation [10]
Cc1ccc(Nc2nc(N)c3ccccc3n2)cc1Cl [Compound 26]	+	+	1.1	0.4	1.8	6.3	156.1	149.0	0.3	0.8	13.1	0.6	1.6	1.8	1.1	4.0	activated at least one immune response gene in the nematode in a manner independent of PMK-1
NNc1ccc2c(Cl)cc(Cl)c(O)c2n1 [Compound 11]	+	+	18.0	1.1	0.9	2.5	20.23	6.7	1.0	1.7	15.1	1.4	57.0	3.2	1.7	4.7	preferentially activated PMK-1-dependent immune response genes
